Source: US8673981B2, “Phenylcyclobutylamide derivatives and their stereoisomers, the preparation processes and uses thereof” (priority 2008, dated 2014)
Entries after “also recorded” stand apart in the source; their conditions may differ.

Assays:
obese rat model = experiment: Weight-reducing pharmacodynamics study in the obese animal model (nutrient feed, 30 days); format: in vivo, Sprague Dawley rats; design: Average fat weight coefficient: unit not given here; details: for Average added multiplier of body weight: (final - initial)/initial average body weight; for Average fat weight coefficient: average fat weight/final average body weight; for Average fat weight: intraperitoneal and perirenal fat; for Final average body weight: rats on nutrient feed
Description: The experimental Study of Weight-Reducing on Pharmacodynamics
Same numbers of male and female weanling Sprague Dawley rats (clean grade, 43.3±8.5 g) were obtained from Laboratory Animal Center (Chongqing medical university, China) (Certificate of Approval for Environmental Facilities: SYXK (Yu) 20020007; Certificate of Approval for animal: SCXK (Yu) 20020001). 1.2 Medicine and Preparation: racemic compound hydrochloride of example 7, optical isomers of examples 8, 9, 10 and 11, and positive control Sibutramine Hydrochloride were dissolved in 1% CMC-Na. 1.3 Test Instrument: TGL-16 table model high speed centrifuge (Shanghai Medical Instruments Factory NO. 6); KDC centrifuge (Huicheng Radio Factory, Guangzhou); Sartorius electronic balance (GERMANY); Medical refrigerator temperature (SANYO, JAPAN); thermostat water bath tank (Beijing Xicheng district medical apparatus factory); VXH-3 Mini Vortex Mixer (Shanghai Yuejin Medical Apparatus Facotry). 1.4 Nutrition Feed: the recipe of nutrition feed and basal feed are as follows:
Barley flour 20%, dehydrated vegetable 10%, bean flour 20%, corn flour 16%, yeast 1%, wheat bran 16%, fish meal 10%, bone meal 5%, salt 2%.
In the 100 g basal feed, milk powder 10 g, lard 10 g, egg 1 piece, fresh bean sprouts 250 g, oleum jecoris piscis concentratum 10 drops (including VA 1700 u, VD1700 u) were added.
2.1 Establishment and Grouping of Obese Animal Model
Weanling SD rats were randomly allocated to compound groups with large, middle, small dosages; positive control Sibutramine Hydrochloride groups with large, middle, small dosages; and obese animal model group and blank control group (n=5/group for male; n=5/group for female).
The experimental animals in blank control group were feed with normal feed, and animals in other groups were feed with nutrient feed. All animals have abundant feed for 24 h and can eat casually.
Experimental animals in each group were administrated with corresponding drugs once a day at 9 am for 30 days, with a dosage of 1 ml/100 g body weight. The dosage corresponds to clinical dosage of 10 mg/person/day for Sibutramine, which is transformed according to the equivalent dosage between human and rat. Large dosage group adopts 1.2 mg/kg; middle dosage group adopts 0.6 mg/kg, and small dosage group adopts 0.3 mg/kg. Obese animal model group: […] of 1% CMC-Na solution; blank control group: […] of 1% CMC-Na solution.
Measurements were taken of daily body weight; general status; hair; eye, mouth and nose secretions; feces, urinate and activities.
Intraperitoneal and perirenal fat were weighted, and the fat weight coefficient was calculated by body weight.

[1] = background statement; cited from earlier work
[2] = large dosage 1.2 mg/kg once a day for 30 days
[3] = middle dosage 0.6 mg/kg once a day for 30 days
[4] = small dosage 0.3 mg/kg once a day for 30 days

| SMILES | Average added multiplier of body weight (obese rat model; [2]) | Average fat weight coefficient (obese rat model; [2]) | Average fat weight (obese rat model; [2]) | Final average body weight (obese rat model; [2]) | Average added multiplier of body weight (obese rat model; [3]) | Average fat weight coefficient (obese rat model; [3]) | Average fat weight (obese rat model; [3]) | Final average body weight (obese rat model; [3]) | Average added multiplier of body weight (obese rat model; [4]) | Average fat weight coefficient (obese rat model; [4]) | Average fat weight (obese rat model; [4]) | Final average body weight (obese rat model; [4]) | Reduction of basal weight [1] | Decrease of body weight compared with Sibutramine (obese rat model; obese rats, 30 days) | Effect of decreasing fat weight (obese rat model; obese rats, 30 days, among treatment groups and versus Sibutramine, hydrochloride) |
| --- | --- | --- | --- | --- | --- | --- | --- | --- | --- | --- | --- | --- | --- | --- | --- |
| CCC(C)C(N)C(=O)NC(CC(C)C)C1(c2ccc(Cl)cc2)CCC1.Cl (racemic) [Example 7, 2-amino-N-{1-[1-(4-chlorophenyl)cyclobutyl]-3-methylbutyl}-3-methylvaleramide hydrochloride] | 3.2 | 1.1 | 2.0 g | 176.2 g | 3.3 | 1.2 | 2.1 g | 180.5 g | 3.3 | 1.2 | 2.2 g | 186.9 g |  |  |  |
| CC(C)CC(N(C)C)C1(c2ccc(Cl)cc2)CCC1.Cl.O (stereo not drawn) [Sibutramine, 1-(4-chlorophenyl)-N,N-dimethyl-α-(2-methylpropyl)cyclobutanemethanamine hydrochloride monohydrate, reference compound] | 2.9 | 1.1 | 1.9 g | 165.7 g | 3.2 | 1.0 | 1.8 g | 183.2 g | 3.4 | 1.0 | 1.9 g | 185.7 g | 5%-10% |  |  |
| CC[C@H](C)[C@H](N)C(=O)N[C@@H](CC(C)C)C1(c2ccc(Cl)cc2)CCC1.Cl [Example 8, (2S,3S)-2-amino-N-{(S)-1-[1-(4-chlorophenyl)cyclobutyl]-3-methylbutyl}-3-methylvaleramide hydrochloride] | 3.0 | 1.0 | 1.7 g | 175.2 g | 3.2 | 1.0 | 1.9 g | 185.6 g | 3.4 | 1.1 | 2.0 g | 188.9 g |  |  |  |
| CC[C@@H](C)[C@@H](N)C(=O)N[C@@H](CC(C)C)C1(c2ccc(Cl)cc2)CCC1.Cl [Example 10, (2R,3R)-2-amino-N-{(S)-1-[1-(4-chlorophenyl)cyclobutyl]-3-methylbutyl}-3-methylvaleramide hydrochloride] | 3.0 | 1.1 | 1.9 g | 173.9 g | 3.2 | 1.2 | 2.0 g | 180.4 g | 3.2 | 1.2 | 2.1 g | 185.0 g |  |  |  |
| CC[C@H](C)[C@H](N)C(=O)N[C@H](CC(C)C)C1(c2ccc(Cl)cc2)CCC1.Cl [Example 9, (2S,3S)-2-amino-N-{(R)-1-[1-(4-chlorophenyl)cyclobutyl]-3-methylbutyl}-3-methylvaleramide hydrochloride] | 2.6 | 0.9 | 1.4 g | 156.1 g | 2.7 | 0.9 | 1.5 g | 167.9 g | 2.8 | 0.9 | 1.5 g | 168.1 g |  | decreased the body weight evidently | the best; also recorded: significantly better effect than Sibutramine |
| CC[C@@H](C)[C@@H](N)C(=O)N[C@H](CC(C)C)C1(c2ccc(Cl)cc2)CCC1.Cl [Example 11, (2R,3R)-2-amino-N-{(R)-1-[1-(4-chlorophenyl)cyclobutyl]-3-methylbutyl}-3-methylvaleramide hydrochloride] | 2.8 | 1.1 | 1.8 g | 162.4 g | 3.0 | 1.1 | 1.9 g | 173.2 g | 3.2 | 1.2 | 2.1 g | 181.0 g |  |  |  |
